{"source": "paper PMC12843750", "about": "“Integrated Biomimetic 2D-LC and Permeapad® Assay for Profiling the Transdermal Diffusion of Pharmaceutical Compounds” (Molecules, 2026)", "origin": "cited, not measured here", "conditions": "ref Drugbank", "data": [{"smiles": "CC(=O)Nc1ccc(O)cc1", "note": "[Paracetamol]", "values": [{"measurement": "pKa", "result": 9.46}]}]}
